What was measured:
Assay in all cases: relative viability (nuclei count vs DMSO), 5 days (fraction); higher = more cells survive
4EGI-1 + Vorinostat = compound: O=C(O)C(Cc1ccccc1[N+](=O)[O-])=NNc1nc(-c2ccc(Cl)c(Cl)c2)cs1 (mixture of isomers) [4EGI-1] + O=C(CCCCCCC(=O)Nc1ccccc1)NO [Vorinostat] (partner 1 µM)
In short: (§1)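 Cells from lung cancer lines were seeded into 1536-well plates and, one day later, dosed by pin tool. Treatments were either a single drug or a fixed dose of an anchor drug with five library-drug doses (not always all listed) in √10 steps. After 5 days, nuclei were stained in a one-step fixation (final 0.05% Triton X-100, 1% formaldehyde, 1 ug/ml Hoechst) and counted on 4× images, and relative viability is the treated-to-vehicle nuclei ratio, as the median of duplicate plates.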

XMD8-85 + Alpelisib = compound: CN1CCN(CC1)C2=CC(=C(C=C2)NC3=NC=C4C(=N3)N(C5=CC=CC=C5C(=O)N4C)C)OC [XMD8-85] + Cc1nc(NC(=O)N2CCC[C@H]2C(N)=O)sc1-c1ccnc(C(C)(C)C(F)(F)F)c1 [Alpelisib] (partner 2 µM)
In short: as §1

XMD8-85 + Phenformin = compound: CN1CCN(CC1)C2=CC(=C(C=C2)NC3=NC=C4C(=N3)N(C5=CC=CC=C5C(=O)N4C)C)OC [XMD8-85] + N=C(N)NC(=N)NCCc1ccccc1 [Phenformin] (partner 250 µM)
In short: as §1

XMD8-85 + Trametinib = compound: CN1CCN(CC1)C2=CC(=C(C=C2)NC3=NC=C4C(=N3)N(C5=CC=CC=C5C(=O)N4C)C)OC [XMD8-85] + CC(=O)Nc1cccc(-n2c(=O)n(C3CC3)c(=O)c3c(Nc4ccc(I)cc4F)n(C)c(=O)c(C)c32)c1 [Trametinib] (partner 0.02 µM)
In short: as §1

Cell Line | relative viability (4EGI-1 + Vorinostat; first compound 0.5 µM) | relative viability (4EGI-1 + Vorinostat; first compound 1.581 µM) | relative viability (4EGI-1 + Vorinostat; first compound 5 µM) | relative viability (4EGI-1 + Vorinostat; first compound 15.81 µM) | relative viability (4EGI-1 + Vorinostat; first compound 50 µM) | relative viability (XMD8-85 + Alpelisib; first compound 0.253 µM) | relative viability (XMD8-85 + Alpelisib; first compound 0.8 µM) | relative viability (XMD8-85 + Alpelisib; first compound 2.53 µM) | relative viability (XMD8-85 + Alpelisib; first compound 8 µM) | relative viability (XMD8-85 + Phenformin; first compound 0.08 µM) | relative viability (XMD8-85 + Phenformin; first compound 0.253 µM) | relative viability (XMD8-85 + Phenformin; first compound 0.8 µM) | relative viability (XMD8-85 + Phenformin; first compound 2.53 µM) | relative viability (XMD8-85 + Phenformin; first compound 8 µM) | relative viability (XMD8-85 + Trametinib; first compound 0.08 µM) | relative viability (XMD8-85 + Trametinib; first compound 0.253 µM) | relative viability (XMD8-85 + Trametinib; first compound 0.8 µM) | relative viability (XMD8-85 + Trametinib; first compound 2.53 µM) | relative viability (XMD8-85 + Trametinib; first compound 8 µM) | relative viability (XMD8-85 + Alpelisib; first compound 0.08 µM)
NCI-H2228 | 0.749 | 0.609 | 0.588 | 0.539 | 0.123 | 0.724 | 0.78 | 0.891 | 0.488 | 0.235 | 0.293 | 0.34 | 0.334 | 0.261 | 0.354 | 0.57 | 0.379 | 0.387 | 0.181 | 
LOU-NH91 | 0.993 |  | 0.964 | 0.782 | 0.529 | 0.758 | 0.726 | 0.711 | 0.616 | 0.661 | 0.774 |  | 0.835 | 0.523 | 0.792 | 0.807 | 0.755 | 0.785 | 0.621 | 0.681
NCI-H1666 | 0.997 | 1.12 | 0.949 | 0.992 | 0.604 | 0.829 | 0.9 | 1.05 | 0.74 | 0.578 | 0.601 | 0.574 | 0.567 | 0.576 | 0.918 | 0.868 | 0.852 | 0.947 | 0.794 | 1.01
NCI-H1395 | 0.833 |  | 0.858 | 0.669 | 0.397 | 0.907 | 0.933 | 0.965 | 1.08 | 0.483 | 0.421 | 0.447 | 0.414 | 0.409 | 0.832 | 1.08 | 0.995 | 1.04 | 0.829 | 0.927
SK-MES-1 | 1.09 | 0.938 | 1.1 | 0.728 | 0.228 | 0.654 | 1.03 | 1.02 |  | 0.699 | 0.624 | 0.645 | 0.643 | 0.427 | 0.57 | 0.616 | 0.49 | 0.428 | 0.304 | 0.769
EKVX | 0.852 | 0.746 | 0.759 | 0.309 | 0.203 | 0.996 | 0.935 | 0.986 | 0.899 | 0.226 | 0.218 | 0.228 | 0.245 | 0.202 | 0.56 | 0.327 | 0.437 | 0.47 | 0.374 | 0.776
HOP-62 | 0.65 | 0.346 | 0.715 | 0.616 | 0.104 | 0.967 | 1.04 | 0.908 |  | 0.595 | 0.535 | 0.659 | 0.683 | 0.469 | 0.368 | 0.378 | 0.34 | 0.339 | 0.129 | 0.85
NCI-H1734 | 0.965 | 0.67 | 0.966 | 0.545 | 0.329 | 0.678 | 0.745 | 0.658 | 0.576 | 0.397 | 0.331 | 0.369 | 0.382 | 0.348 | 0.654 | 0.712 | 0.704 | 0.604 | 0.519 | 0.652
LCLC-103H | 0.619 | 0.75 | 0.851 | 0.746 | 0.282 | 1.04 | 0.933 | 0.961 | 0.728 | 0.329 | 0.34 | 0.36 | 0.372 | 0.303 | 0.728 | 0.637 | 0.683 | 0.676 | 0.522 | 0.88
EMC-BAC-2 | 0.472 |  | 0.634 | 0.318 | 0.168 | 0.739 | 0.752 | 0.733 | 0.72 | 0.475 | 0.518 |  | 0.517 | 0.429 | 0.901 | 0.879 | 0.895 | 0.828 | 0.67 | 0.74
COR-L23 | 0.672 | 0.261 | 0.618 | 0.345 | 0.103 | 0.887 | 0.742 | 0.712 | 0.506 | 0.384 | 0.452 | 0.484 | 0.476 | 0.366 | 0.488 | 0.548 | 0.651 | 0.548 | 0.333 | 0.882
NCI-H460 | 0.713 | 0.353 | 0.714 | 0.436 | 0.0364 | 0.442 | 0.688 | 0.401 | 0.147 | 0.377 | 0.59 | 0.545 | 0.578 | 0.1 | 0.176 | 0.122 | 0.2 | 0.133 | 0.055 | 0.447
HCC-366 | 0.469 | 0.149 | 0.431 | 0.34 | 0.0704 | 0.573 | 0.42 | 0.373 | 0.273 | 0.598 | 0.611 | 0.617 | 0.63 | 0.649 | 0.33 | 0.35 | 0.467 | 0.324 | 0.307 | 0.532
NCI-H1755 | 0.818 | 0.749 | 0.891 | 0.853 | 0.626 | 0.949 | 0.954 | 1.04 | 0.896 | 0.608 | 0.65 | 0.429 | 0.581 | 0.495 | 0.801 | 0.857 | 0.745 | 0.876 | 0.758 | 0.981
NCI-H2087 | 0.694 | 0.958 | 0.724 | 0.995 | 0.343 | 1.05 | 1.21 | 1.35 | 0.808 | 0.495 | 0.441 | 0.562 | 0.396 | 0.389 | 0.17 | 0.203 | 0.19 | 0.19 | 0.172 | 1.18
CAL-12T | 0.964 |  | 0.95 | 0.759 | 0.67 | 1.3 | 1.11 | 0.842 | 0.658 | 0.575 | 0.528 | 0.537 | 0.517 | 0.369 | 0.32 | 0.404 |  | 0.302 | 0.379 | 1.28

From the supplement of paper PMC10307832
